Results as given in patent US7410765B2, “System for protease mediated protein expression” (The Regents of the University of California, priority 2004, dated 2008).

Tested on: caspase-3
Experiment: Caspase-3-dependent DsRed fluorescence in live transgenic zebrafish embryos injected with the UbG-DEVDsRx reporter construct
Assay type: in vivo
Procedure: As discussed in detail below, the invention was tested by making a construct where the degradation signal is a non-removable ubiquitin moiety (G76V zebrafish ubiquitin mutant) fused to the red fluorescent protein DsRed Express by a linker containing a caspase-3 cleavage site (amino acid sequence: DEVD; SEQ ID NO: 1). […] The DNA construct was microinjected in one-cell-stage zebrafish embryos to generate transgenic fish where apoptotic cells express the red fluorescent marker.
Specific labelling of apoptotic cells by UbG-DEVDsRx depends on a functional proteasomal degradation pathway because failure to degrade the UbG76V-tagged chimera would allow fluorescence to develop, even in the absence of caspase-3 activity.
Morpholino-modified oligonucleotides were injected in the yolk of one-cell-stage embryos. DNA constructs were linearized and injected in the cytoplasm of one-cell-stage embryos. For each experiment, 200-250 transgenics were generated. Upon reaching the desired age, 20-30 embryos with similar transgene expression levels and low-mosaicism were selected for TUNEL labelling, confocal microscopy, in vivo observations and cell counts.
Fixed and live embryos were embedded in 1.2% low-melt agarose on a glass slide and immersed in a drop of water to retain humidity.

With `COC(=O)CC[C@H](NC(=O)[C@H](CC(=O)OC)NC(=O)OCc1ccccc1)C(=O)N[C@H](C(=O)N[C@@H](CC(=O)OC)C(=O)CF)C(C)C` [Z-DEVD-FMK] the “expression of red fluorescence in embryo injected with the test construct” value (embryo incubated in the presence of Z-DEVD-FMK, 75 μM, FIG. 1e) was “does not express any fluorescence” and the “fluorescence (UbG-DEVDsRx labelling) in living transgenic embryos” value (embryos exposed to the caspase-3 inhibitor, concentration not given) was “fluorescence is absent”.
